The source of these data is ChEMBL document CHEMBL1201862, “PubChem BioAssay data set” (2004).

SMILES strings stand for the structures.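 Values below derive from 48-hour exposures of cells grown in 96-well plates, with endpoints linearly interpolated between the two concentrations bracketing the appropriate inhibition level. GI50 marks 50% less growth.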 Calls of active or inactive are those of the source. No stated cut-off is given here; in the data, active = GI50 up to about 1.1 µM and inactive = higher. Bounds are passed on as bounds.

Among the test systems are OVCAR-5; RPMI-8226; SK-OV-3; CAKI-1; SW-620; DU-145; SNB-75; NCI-H460; PC-3; UACC-62; SF-539; U-251; HT-29; NCI-H226; NCI-H522; SK-MEL-28; UACC-257; CCRF-CEM; SR; Malme-3M.
Holding throughout (experiment): DTP human tumour cell line panel, 48 h

What is called GI50 is the concentration that inhibits growth by half.

On to `CC1=C(C(=O)OC(C)(C)C)C(c2ccc([N+](=O)[O-])cc2)C(C(=O)OC(C)(C)C)=C(C)N1`, for which the GI50 was 19.1 µM (inactive) with OVCAR-5; 17 µM (inactive) with RPMI-8226; 32.4 µM (inactive) in the test with SK-OV-3; 28.9 µM (inactive) in the test on CAKI-1; 26.9 µM (inactive) in the test on SW-620; 26.9 µM (inactive) in the test with DU-145. Moreover, the GI50 in the test on SNB-75 was 24.1 µM (inactive); in the test on NCI-H460, 22.2 µM (inactive); in the test with PC-3 it was 26.7 µM (inactive); in the test on UACC-62 it was 16.6 µM (inactive); in the test on SF-539, 19.8 µM (inactive); with U-251 it was 21.1 µM (inactive). Also, the GI50 with HT-29 was 19.8 µM (inactive); in the test on NCI-H226 it was 21.3 µM (inactive); in the test on NCI-H522, 18.5 µM (inactive); in the test with SK-MEL-28, 20.1 µM (inactive); in the test with UACC-257, 18.8 µM (inactive); in the test with CCRF-CEM, 0.187 µM (active).
For `Cc1c(C)c(C)c(-n2c(=O)n(C)c(=O)n2C(C)(C)C)c(C)c1C`, the GI50 with OVCAR-5 was > 100 µM (inactive); in the test on RPMI-8226, 89.5 µM (inactive); in the test with SK-OV-3 it was > 100 µM (inactive); with CAKI-1, > 100 µM (inactive); in the test on SW-620, > 100 µM (inactive); with DU-145 it was > 100 µM (inactive). Also, the GI50 was > 100 µM (inactive) in the test with SNB-75; > 100 µM (inactive) in the test on NCI-H460; > 100 µM (inactive) in the test with PC-3; > 100 µM (inactive) in the test with UACC-62; 85.9 µM (inactive) in the test with SR; > 100 µM (inactive) in the test with SF-539. In addition, the GI50 is > 100 µM (inactive) with U-251, > 100 µM (inactive) in the test on SK-MEL-28, > 100 µM (inactive) in the test on UACC-257 and 38 µM (inactive) in the test on CCRF-CEM.
Consider `CCOC(=O)Nc1nn[nH]c1Cl`, for which the GI50 in the test on OVCAR-5, in the test with RPMI-8226, with SK-OV-3, in the test on CAKI-1, in the test on SW-620 and with DU-145 was > 100 µM (inactive) in each case. Further, the GI50 in the test on SNB-75, in the test on NCI-H460, with PC-3, in the test on UACC-62, in the test with SF-539 and in the test on U-251 was > 100 µM (inactive) each time. Besides, the GI50 in the test with HT-29, in the test on NCI-H226, in the test on NCI-H522, in the test on Malme-3M, in the test on SK-MEL-28 and in the test with UACC-257 was > 100 µM (inactive) in each case.
Take `COc1ccc2c(c1)C(N)CC2=O` (stereo not drawn): the GI50 with OVCAR-5, in the test on RPMI-8226, with SK-OV-3, with CAKI-1, in the test on SW-620 and in the test on DU-145 was > 100 µM (inactive) in each case. For the same molecule, the GI50 was > 100 µM (inactive) in the test with SNB-75; 18.9 µM (inactive) in the test with PC-3; > 100 µM (inactive) in the test with UACC-62; > 100 µM (inactive) in the test on SF-539; > 100 µM (inactive) with U-251; > 100 µM (inactive) with HT-29. For the same molecule, the GI50 in the test on NCI-H226, with NCI-H522, with SK-MEL-28, with UACC-257 and in the test with CCRF-CEM was > 100 µM (inactive) throughout.
With `CCN(CC)CCCC(C)NC(=O)c1cc(-c2nccn2C)nc2ccc(C)cc12` (stereo not drawn), the GI50 in the test on OVCAR-5, in the test on RPMI-8226, with CAKI-1, with SW-620, in the test on DU-145 and in the test with SNB-75 was > 100 µM (inactive) throughout. The GI50 with NCI-H460 was 33 µM (inactive); in the test on PC-3, > 100 µM (inactive); in the test with UACC-62, > 100 µM (inactive); in the test with SR, < 0.01 µM (active); in the test with SF-539 it was > 100 µM (inactive); with U-251, > 100 µM (inactive). The GI50 in the test on HT-29, in the test with NCI-H226, in the test on Malme-3M, in the test with SK-MEL-28 and in the test with UACC-257 was > 100 µM (inactive) in each case.
In the case of `Cc1ccc2ccc(O)cc2c1`, the GI50 in the test with OVCAR-5 is 55.8 µM (inactive); with RPMI-8226, 27.9 µM (inactive); in the test with SK-OV-3, 26.9 µM (inactive); in the test with CAKI-1 it was 38.1 µM (inactive); in the test with SW-620, 37 µM (inactive); with DU-145, 91.6 µM (inactive). Also, the GI50 is 48.9 µM (inactive) in the test on SNB-75; 89.1 µM (inactive) in the test on NCI-H460; 21.1 µM (inactive) with PC-3; 43.6 µM (inactive) in the test with UACC-62; 38.4 µM (inactive) with SF-539; 23.1 µM (inactive) in the test on U-251. For the same molecule, the GI50 is 53.6 µM (inactive) with HT-29; 39.3 µM (inactive) with NCI-H226; 19.9 µM (inactive) in the test on NCI-H522; 48.2 µM (inactive) in the test on Malme-3M; > 100 µM (inactive) in the test with SK-MEL-28; 64.3 µM (inactive) with UACC-257. For the same molecule, the GI50 in the test with CCRF-CEM is 23.9 µM (inactive).
Take `COc1ccc(-n2c3c(c4cc(O)ccc42)Cc2ccccc2C3=O)cc1`: the GI50 in the test with RPMI-8226 is 3.76 µM (inactive); in the test with SK-OV-3 it was 16 µM (inactive); with CAKI-1, 30.2 µM (inactive); in the test with SW-620, 57 µM (inactive); in the test with DU-145, > 100 µM (inactive); with SNB-75, 2.19 µM (inactive). The GI50 in the test with NCI-H460 was 16.1 µM (inactive); with PC-3, 2.2 µM (inactive); in the test with UACC-62 it was 48.5 µM (inactive); in the test with SR, 41.9 µM (inactive); in the test with SF-539, 34.9 µM (inactive); in the test on U-251 it was 45.2 µM (inactive). The GI50 in the test on HT-29 is 53.2 µM (inactive); in the test with NCI-H226 it was 63.7 µM (inactive); with Malme-3M it was > 100 µM (inactive); in the test on SK-MEL-28, 28.1 µM (inactive); with UACC-257 it was > 100 µM (inactive); in the test on CCRF-CEM, 4.9 µM (inactive).
As for `O=C(Cn1c2ccc(Br)cc2c2nc3ccccc3nc21)NC1CCCCC1`, the GI50 with OVCAR-5, with RPMI-8226, in the test with SK-OV-3, in the test with CAKI-1, in the test with SW-620 and in the test with DU-145 was > 100 µM (inactive) throughout. In addition, the GI50 with SNB-75 is 36.1 µM (inactive); in the test on NCI-H460, > 100 µM (inactive); in the test on PC-3, > 100 µM (inactive); with UACC-62 it was > 100 µM (inactive); in the test on U-251, > 100 µM (inactive); with HT-29 it was > 100 µM (inactive). Moreover, the GI50 is > 100 µM (inactive) with NCI-H226; > 100 µM (inactive) in the test on NCI-H522; > 100 µM (inactive) in the test on Malme-3M; 81.1 µM (inactive) with SK-MEL-28; > 100 µM (inactive) in the test on UACC-257.
Turning to `C=C(C)CCN(C(=O)OC(C)(C)C)c1cc(C(C)C)co1`, the GI50 with OVCAR-5 was > 100 µM (inactive); with RPMI-8226, 20.2 µM (inactive); with SK-OV-3, > 100 µM (inactive); in the test on CAKI-1, > 100 µM (inactive); in the test with SW-620, 56 µM (inactive); with DU-145, 45 µM (inactive). Also, the GI50 was 22.4 µM (inactive) in the test with PC-3; 86.9 µM (inactive) in the test on UACC-62; 33.5 µM (inactive) in the test on SR; > 100 µM (inactive) in the test with SF-539; 26.7 µM (inactive) in the test on U-251; 45.3 µM (inactive) with HT-29. Also, the GI50 with NCI-H226 is 57.7 µM (inactive); with SK-MEL-28, > 100 µM (inactive); with UACC-257, 34 µM (inactive); with CCRF-CEM, 25.6 µM (inactive).
On to `Clc1cc(-c2ccccc2)nc2ccccc12`, for which the GI50 in the test with OVCAR-5 was > 100 µM (inactive); in the test with RPMI-8226 it was 23.7 µM (inactive); in the test with SK-OV-3 it was > 100 µM (inactive); in the test on CAKI-1 it was 33.9 µM (inactive); with SW-620, 43.6 µM (inactive); with DU-145, 40.6 µM (inactive). The GI50 with SNB-75 was 28.6 µM (inactive); in the test on NCI-H460, 35.5 µM (inactive); in the test on PC-3, 24.8 µM (inactive); in the test on UACC-62, 42.6 µM (inactive); in the test on SF-539, 51.4 µM (inactive); in the test on U-251, 35.4 µM (inactive). The GI50 in the test on HT-29 is 32.1 µM (inactive); with NCI-H226 it was 28.4 µM (inactive); in the test on NCI-H522, 17 µM (inactive); in the test with Malme-3M it was 38 µM (inactive); in the test on SK-MEL-28 it was 57.5 µM (inactive); in the test with UACC-257 it was 34.8 µM (inactive). Besides, the GI50 in the test with CCRF-CEM is 23.8 µM (inactive).
Consider `O=C1Cc2c([nH]c3ccc(C(=O)O)cc23)-c2ccccc2N1`, for which the GI50 in the test with OVCAR-5 is 6.79 µM (inactive); in the test with RPMI-8226, > 100 µM (inactive); in the test with SK-OV-3 it was > 100 µM (inactive); in the test on CAKI-1, > 100 µM (inactive); with SW-620, > 100 µM (inactive); in the test on DU-145 it was > 100 µM (inactive). Besides, the GI50 in the test with NCI-H460, with PC-3, in the test on UACC-62, with SR, in the test with SF-539 and in the test on U-251 was > 100 µM (inactive) throughout. In addition, the GI50 is 84.9 µM (inactive) in the test on HT-29; > 100 µM (inactive) with NCI-H226; > 100 µM (inactive) in the test on Malme-3M; > 100 µM (inactive) in the test with SK-MEL-28; > 100 µM (inactive) in the test with UACC-257; > 100 µM (inactive) with CCRF-CEM.
